Eleven compounds from patent US20030114445A1, “N3-substituted 6-anilinopyrimidines and methods to treat-Gram-positive bacterial and mycoplasmal infections” (priority 2001, published 2003) can be followed below.

pKi: −log10 of the molar value. In brackets after ≈: the same amount, converted by molar mass.

The target of assay [1] is B.subtilis pol IIIC (Bacillus subtilis, UniProt P13267). Kind of assay: biochemical. The protocol: DNA pol activity was assayed as described in Barnes et al., Nuc. Acids Res., 6:1203-19 (1979), using activated “nicked” calf-thymus DNA as template primer, 10 pM [^3H-methyl]-dTTP as the labelled dNTP substrate, and dATP, dCTP, and dGTP at 25 μM each.
Inhibitory activity of the compounds is determined by measuring the ability of the agent to inhibit enzyme-catalyzed incorporation of [^3H]-dTMP into nicked calf thymus DNA in the absence of the competitor dGTP or dATP (“truncated assay”) (see G. E. Wright and N. C. Brown, Inhibition of Bacillus subtilis DNA Polymerase III by Arylhydrazinopyrimidines: Novel Properties of 2-Thiouracil Derivatives, Biochim. Biophys. Acta 432:37-48 (1976)). Purified pol IIIC is added to a buffered solution containing Mg^2+, DTT, glycerol, nicked calf thymus DNA, saturating concentrations of dATP, dCTP, dTTP and [^3H]-dTTP. Reaction mixtures are incubated at 30° C. for 10 minutes, quenched and filtered, and radioactivity in the acid-insoluble material measured by scintillation counting. Experiments are done in triplicate. Inhibitors are assayed by addition of several dilutions of a stock solution of inhibitor (DMSO or water, depending on solubility) before enzyme addition. […] The truncated assay, i.e. exclusion of the competitive substrate dGTP or dATP, depending upon whether the compound is a uracil derivative or an isocytosine derivative, respectively, allows for the direct determination of apparent inhibitor constants (K,) in this assay system.

For assay [2], the system named is B. subtilis. Nature of the assay: Inhibition of bacterial growth on agar plates (MIC). The following applies: Bacillus subtilis, 37° C., 24 hours. The format is cell-based. The protocol:
(§1) Each compound is assayed against a panel of Bacillus, Enterococcus and Staphylococcus, and a Gram-negative bacterium Escherichia coli as negative control, grown in appropriate plate media solidified with 1.3% agar-agar. Stock solutions of the compounds in dimethylsulfoxide or water, depending on solubility, are added to sterile medium at a temperature of 60° C. […] One tenth mL of diluted bacteria containing 500-1000 colony-forming units (CFU) are plated and spread, and the plates incubated at 37° C. for 24 hours. MIC (minimum inhibitory concentration) is equivalent to the lowest concentration at which growth, i.e. colony formation, is not observed.

The subject of assay [3] is E. fecalis. The description is as above. Format: cell-based. Particulars: 37° C., 24 hours. The procedure:
as §1

Assay [4] concerns E. fecium. The assay is described as above. The format is cell-based. Particulars: 37° C., 24 hours. The protocol:
as §1

In assay [5] the test system is S.aureus (Smith). The description is as above. The following applies: Staphylococcus aureus, 37° C., 24 hours. Format: cell-based. The procedure:
as §1

Chain of B.subtilis pol IIIC (P13267 whole entry, the tested form may be a part): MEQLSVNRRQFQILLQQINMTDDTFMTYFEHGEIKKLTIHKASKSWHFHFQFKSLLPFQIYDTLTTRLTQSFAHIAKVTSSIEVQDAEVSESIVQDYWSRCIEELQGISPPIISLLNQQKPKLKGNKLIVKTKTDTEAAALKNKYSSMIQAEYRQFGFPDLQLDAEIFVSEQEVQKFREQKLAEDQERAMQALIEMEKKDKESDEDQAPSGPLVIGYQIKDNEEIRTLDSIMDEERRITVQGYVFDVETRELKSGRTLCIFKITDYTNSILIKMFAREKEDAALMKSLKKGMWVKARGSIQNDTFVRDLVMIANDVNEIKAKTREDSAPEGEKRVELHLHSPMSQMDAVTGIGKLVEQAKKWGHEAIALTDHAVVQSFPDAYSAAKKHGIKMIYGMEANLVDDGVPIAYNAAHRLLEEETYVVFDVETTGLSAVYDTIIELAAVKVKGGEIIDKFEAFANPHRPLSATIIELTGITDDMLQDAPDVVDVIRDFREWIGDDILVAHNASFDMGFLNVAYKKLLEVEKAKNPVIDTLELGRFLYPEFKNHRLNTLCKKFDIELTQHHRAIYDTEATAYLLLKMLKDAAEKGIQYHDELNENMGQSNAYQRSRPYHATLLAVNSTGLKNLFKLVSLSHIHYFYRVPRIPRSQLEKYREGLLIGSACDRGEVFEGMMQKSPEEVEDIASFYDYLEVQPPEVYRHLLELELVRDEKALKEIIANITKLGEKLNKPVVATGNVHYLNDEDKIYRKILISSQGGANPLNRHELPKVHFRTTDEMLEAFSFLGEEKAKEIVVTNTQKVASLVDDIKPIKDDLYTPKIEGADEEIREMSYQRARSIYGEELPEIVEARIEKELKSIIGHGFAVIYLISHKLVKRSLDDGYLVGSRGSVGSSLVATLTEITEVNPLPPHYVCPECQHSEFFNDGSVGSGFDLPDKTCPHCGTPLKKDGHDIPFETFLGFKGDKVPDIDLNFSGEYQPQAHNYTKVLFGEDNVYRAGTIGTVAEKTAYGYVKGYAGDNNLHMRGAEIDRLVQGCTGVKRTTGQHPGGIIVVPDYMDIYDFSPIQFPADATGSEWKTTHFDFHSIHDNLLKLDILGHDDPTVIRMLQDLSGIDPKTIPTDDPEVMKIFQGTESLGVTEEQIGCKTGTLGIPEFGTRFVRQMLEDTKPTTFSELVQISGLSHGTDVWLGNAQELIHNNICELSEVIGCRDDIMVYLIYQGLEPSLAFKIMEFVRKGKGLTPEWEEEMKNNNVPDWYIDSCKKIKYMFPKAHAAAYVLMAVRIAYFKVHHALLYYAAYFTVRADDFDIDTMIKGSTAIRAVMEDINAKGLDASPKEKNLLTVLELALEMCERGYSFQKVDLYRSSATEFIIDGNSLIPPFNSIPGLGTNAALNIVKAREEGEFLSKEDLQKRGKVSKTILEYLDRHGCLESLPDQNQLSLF

A word on the pKi: it is the negative decadic logarithm of the Ki, by convention in mol/L. High values mean a small Ki, low ones a large Ki. The term MIC denotes the lowest concentration that inhibits growth of the organism. For the compound `CCc1cc(Nc2cc(=O)n(CCOCCOCc3ccccc3)c(=O)[nH]2)ccc1C` [Compound 5, 3-[2-(2-Benzyloxyethoxy)ethyl]-6-(3-ethyl-4-methylanilino)uracil], the pKi in assay [1] was 7.25. Besides, the MIC is below 1.25 µg/mL in assay [2], 5 µg/mL (≈ 11.8 µM) in assay [3], 10 µg/mL (≈ 23.6 µM) in assay [4] and 5 µg/mL (≈ 11.8 µM) in assay [5].

As for `CCOC(=O)CCCCn1c(=O)cc(Nc2ccc(C)c(CC)c2)[nH]c1=O` [Compound 6, 3-(4-Ethoxycarbonylbutyl)-6-(3-ethyl-4-methylanilino)uracil], in assay [1], the pKi is 7.12. For the same compound, the MIC is below 1.25 µg/mL in assay [2], 5 µg/mL (≈ 13.4 µM) in assay [3], below 1.25 µg/mL in assay [4] and 2.5 µg/mL (≈ 6.69 µM) in assay [5].

In assay [1], `CCc1cc(Nc2cc(=O)n(C/C=C/C(=O)OC)c(=O)[nH]2)ccc1C` [Compound 7, 3-[3-(Methoxycarbonyl)-2-propenyl]-6-(3-ethyl-4-methylanilino)uracil] gave a pKi of 6.49. In addition, the MIC in assay [2] was 2.5 µg/mL (≈ 7.28 µM); in assay [3], 20 µg/mL (≈ 58.2 µM); in assay [4] it was 5 µg/mL (≈ 14.6 µM); in assay [5], 10 µg/mL (≈ 29.1 µM).

`CCc1cc(Nc2cc(=O)n(CCCC(C)=O)c(=O)[nH]2)ccc1C` [Compound 8, 3-(4-Oxopentyl)-6-(3-ethyl-4-methylanilino)uracil]: the pKi in assay [1] was 7.21. The MIC in assay [2] was below 1.25 µg/mL; in assay [3], 5 µg/mL (≈ 15.2 µM); in assay [4] it was 5 µg/mL (≈ 15.2 µM); in assay [5], 5 µg/mL (≈ 15.2 µM).

In turn, `CCOC(=O)CCCn1c(=O)cc(Nc2ccc(C)c(CC)c2)[nH]c1=O` [Compound 10, 3-[3-(Ethoxycarbonyl)propyl]-6-(3-ethyl-4-methylanilino)uracil] showed a pKi in assay [1] of 7.00. Moreover, the MIC in assay [2] was below 1.25 µg/mL; in assay [3], 5 µg/mL (≈ 13.9 µM); in assay [4], 2.5 µg/mL (≈ 6.96 µM); in assay [5], 2.5 µg/mL (≈ 6.96 µM).

Turning to `CCc1cc(Nc2cc(=O)n(CC(=O)N(CC)CC)c(=O)[nH]2)ccc1C` [Compound 11, 3-[(N,N-Diethylaminocarbonyl)methyl]-6-(3-ethyl-4-methylanilino)uracil], the pKi in assay [1] is 6.35. Moreover, the MIC came out at 2.5 µg/mL (≈ 6.97 µM) in assay [2], 20 µg/mL (≈ 55.8 µM) in assay [3], 20 µg/mL (≈ 55.8 µM) in assay [4] and 10 µg/mL (≈ 27.9 µM) in assay [5].

As for `CCc1cc(Nc2cc(=O)n(CCOCCOC)c(=O)[nH]2)ccc1C` [Compound 12, 3-[2-(2-Methoxyethoxy)ethyl]-6-(3-ethyl-4-methylanilino)uracil], the pKi in assay [1] was 7.35. For the same compound, the MIC in assay [2] amounted to 2.5 µg/mL (≈ 7.2 µM); in assay [3] it was 5 µg/mL (≈ 14.4 µM); in assay [4], 5 µg/mL (≈ 14.4 µM); in assay [5] it was 2.5 µg/mL (≈ 7.2 µM).

For the compound `CCc1cc(Nc2cc(=O)n(CC#CCO)c(=O)[nH]2)ccc1C` [Compound 13, 3-(4-Hydoxy-2-butynyl)-6-(3-ethyl-4-methylanilino)uracil], the pKi in assay [1] is 7.17. For the same compound, the minimum inhibitory concentration (MIC) in assay [2] came out at 5 µg/mL (≈ 16 µM); in assay [3] it was 10 µg/mL (≈ 31.9 µM); in assay [4] it was 10 µg/mL (≈ 31.9 µM); in assay [5], 5 µg/mL (≈ 16 µM).

Consider `CCc1cc(Nc2cc(=O)n(CCN(CC)CC)c(=O)[nH]2)ccc1C` [Compound 14, 3-[2-(N,N-diethylamino)ethyl]-6-(3-ethyl-4-methylanilino)uracil], for which the pKi in assay [1] was 6.28. The MIC in assay [2] turned out to be 10 µg/mL (≈ 29 µM); in assay [3], 20 µg/mL (≈ 58.1 µM); in assay [4] it was 20 µg/mL (≈ 58.1 µM); in assay [5], 20 µg/mL (≈ 58.1 µM).

In turn, `CCc1cc(Nc2cc(=O)n(CC(C)=O)c(=O)[nH]2)ccc1C` [Compound 15, 3-(2-Oxopropyl)-6-(3-ethyl-4-methylanilino)uracil] showed a pKi in assay [1] of 6.52. In addition, the MIC in assay [2] turned out to be 2.5 µg/mL (≈ 8.3 µM); in assay [3] it was 20 µg/mL (≈ 66.4 µM); in assay [4], 10 µg/mL (≈ 33.2 µM); in assay [5], 10 µg/mL (≈ 33.2 µM).

As to `CCc1cc(Nc2cc(=O)n(CCNS(C)(=O)=O)c(=O)[nH]2)ccc1C` [Compound 16, 3-[2-(Methanesulfonylamino)ethyl]-6-(3-ethyl-4-methylanilino)uracil], in assay [1], the pKi was 6.54. For the same compound, the MIC in assay [2] came to 5 µg/mL (≈ 13.6 µM); in assay [3], 20 µg/mL (≈ 54.6 µM); in assay [4], 10 µg/mL (≈ 27.3 µM); in assay [5] it was 10 µg/mL (≈ 27.3 µM).
